Consider 3 molecules from US20230184759A1, “IN VITRO METHOD FOR DETECTION OF INFECTIONS CAUSED BY PSEUDOMONAS AERUGINOSA” (CONSEJO SUPERIOR DE INVESTIGACIONES CIENTIFICAS (CSIC), priority 2020, published 2023).

Each structure is given as a SMILES string.

What all share (type): binding, rabbit
One assay concerns As389. Kind of assay: Competitive indirect ELISA for detection of HQNO (As389, coating antigen I-5). The note with it: for C.R. (Cross Reactivity): As389 (HQNO) assay, relative to HQNO. As to the method:
(§1) The competitive assay was carried out in a 96 well Maxisorp flat-bottom plates, coated using 100 μL of a BSA conjugate solution in coating buffer pH=9.6. Then, plates were covered with adhesive plate sealer and incubated overnight at 4° C. The day after, plates were washed with PBST (4×300 μL) using the platewasher Biotek ELx405 HT. Sequentially, 50 μL of the corresponding sample solution, containing the analyte HHQ, PQS or HQNO (2 μM to 0.13 nM) or MH medium were added, followed by 50 μL addition of a fixed As dilution and left without agitation 30 min at RT. After another washing step, a 1/6000 dilution of goat AntiRabbit IgG-HRP in PBST was added and incubated 30 min at RT. After a final washing, 100 μL of a substrate solution was added and left 30 min at RT in the dark. Once the time was consumed, the enzymatic reaction was stopped by adding 50 μl of H2SO4 4M solution and the absorbances read at 450 nm. Absorbance data were plotted and analyzed using GraphPad software. The standard calibration curve was fitted to a four-parameter equation according to the following formula: […], where A is the maximum absorbance, B is the minimum absorbance, C is the concentration producing 50% of the maximal absorbance, and D is the slope at the inflection point of the sigmoid curve. Unless otherwise indicated, the data presented correspond to the average of at least two well replicates.
(§2) Regarding specificity studies, it was followed the experimental procedure for indirect competitive ELISA described above. It was assessed the avidity of As versus other quinolone effector molecules of the pqs system from P. aeruginosa. Each assay was run using HHQ, PQS and HQNO as analyte. Cross reactivity was calculated through the equation: […].

The next assay deals with As382. In words: Competitive indirect ELISA for detection of HHQ (As382, coating antigen I-7). The note with it: for C.R. (Cross Reactivity): As382 (HHQ) assay, relative to HHQ. Here is the method:
as §1, §2

Another assay deals with As385. In words: Competitive indirect ELISA for detection of PQS (As385, coating antigen I-5). The note with it: for C.R. (Cross Reactivity): As385 (PQS) assay, relative to PQS. As to the method:
as §1, §2

Setting [1] is: cross reactivity study, As389 (HQNO) assay conditions.
The mark [2] stands for this setting: cross reactivity study, As382 (HHQ) assay conditions.
Setting [3] is: cross reactivity study, As385 (PQS) assay conditions.

Consider `CCCCCCCc1cc(=O)c2ccccc2[nH]1` [HHQ, 2-heptyl-4-quinolone], for which the results for the “C.R. (Cross Reactivity)” value in the assay on As389, with As382 and in the assay with As385 were 36.24%, 100.00% and 13.31%, respectively. Besides, the concentration for half-maximal inhibition (IC50) in the assay on As389 (setting [1]) came to 26.4 nM; in the assay with As382 (MH diluted 1/5, As382 dil. 1/64000, I-7 0.156 μg/mL), 2.85 ± 0.296 nM; in the assay with As382 (PBST, As382 dil. 1/32000, I-7 0.313 μg/mL), 4.59 ± 0.287 nM; in the assay with As382 (setting [2]), 2.67 nM; in the assay on As385 (setting [3]) it was 27.2 nM.
In the case of `CCCCCCCc1cc(=O)c2ccccc2n1O` [HQNO, 2-heptyl-4-quinolone N-oxide], the entries for the “C.R. (Cross Reactivity)” value in the assay with As389, with As382 and in the assay with As385 were 100.00%, 3.11% and 1.53%, respectively. The 50% inhibitory concentration (IC50) in the assay on As389 (MH diluted 1/5, As389 dil. 1/16000, I-5 0.250 μg/mL) was found to be 2.71 ± 0.035 nM; in the assay on As389 (PBS at pH = 6.5, As389 dil. 1, I-5 0.250 μg/mL) it was 4.2 ± 0.858 nM; in the assay with As389 (setting [1]) it was 9.55 nM; in the assay on As382 (setting [2]) it was 86 nM; with As385 (setting [3]), 236 nM.
With `CCCCCCCc1[nH]c2ccccc2c(=O)c1O` [PQS, 2-heptyl-3-hydroxy-4-quinolone], the “C.R. (Cross Reactivity)” value with As389 came out at 5.41%; with As382 it was 7.16%; in the assay with As385 it was 100.00%. The IC50 with As389 (setting [1]) is 177 nM; in the assay with As382 (setting [2]), 37.3 nM; in the assay with As385 (MH diluted 1/10, As385 dil. 1/64000, I-5 0.039 μg/mL), 6.05 ± 0.155 nM; in the assay with As385 (PBS + 0.01% Tween + 0.1 mM EDTA, As385 dil. 1/48000, I-5 0.039 μg/mL), 3.87 ± 0.529 nM; in the assay with As385 (setting [3]), 3.62 nM.
